Read-outs that look alike come from different tables or passages of the source.

This is an account of results in patent US8183371B2, “Pyrazines as delta opioid receptor modulators” (Janssen Pharmaceutica NV, priority 2009, dated 2012).

In test [1] the target is T1, delta opioid receptor (Rattus norvegicus, UniProt P33533).
T1 construct: from tissue; host or cells: forebrain of male Wistar rats
Kind of test: Rat brain delta opioid receptor binding assay. Here is the method: (§1) Procedure: Male, Wistar rats (150-250 g, VAF, Charles River, Kingston, N.Y.) were killed by CO2, and their brains were removed and placed immediately in ice cold Tris HCl buffer (50 mM, pH 7.4). The forebrains were separated from the remainder of the brain by a coronal transection, beginning dorsally at the colliculi and passing ventrally through the midbrain-pontine junction. After dissection, the forebrains were homogenized in Tris buffer in a Teflon®-glass homogenizer. The homogenate was diluted to a concentration of 1 g of forebrain tissue per 80 mL Tris and centrifuged at 39,000×g for 10 min. The pellet was resuspended in the same volume of Tris buffer containing 5 mM MgCl2 with several brief pulses from a Polytron homogenizer. This particulate preparation was used for the delta opioid binding assays. Following incubation with the delta selective peptide ligand ˜4 nM [^3H]DPDPE or 0.25 nM [^3H]naltrindole at 25° C. for 2.5 h in a 96-well plate with total volume of 1 mL, the plate contents were filtered through Wallac filtermat B sheets on a Tomtec 96-well harvester. The filters were rinsed three times with 2 mL of 10 mM HEPES (pH 7.4), and dried in a 650 W microwave oven for 1.75 min twice. To each sample area 2×50 μL of Betaplate Scint scintillation fluid (LKB) was added and the radioactivity was quantified on a LKB (Wallac) 1205 BetaPlate liquid scintillation counter.
(§2) Analysis: The data from the scintillation counter were used to calculate either the % inhibition compared to control binding (when only a single concentration of test compound was evaluated) or a Ki value (when a range of concentrations was tested). Percent inhibition was calculated as: [(total dpm−test compound dpm)/(total dpm−nonspecific dpm)]*100. Kd and Ki values were calculated using GraphPad PRISM data analysis program.

The target in test [2] is T2, mu opioid receptor (Rattus norvegicus, UniProt P33535).
T2 construct: from tissue; host or cells: forebrain of male Wistar rats
T2 sequence (P33535 whole entry): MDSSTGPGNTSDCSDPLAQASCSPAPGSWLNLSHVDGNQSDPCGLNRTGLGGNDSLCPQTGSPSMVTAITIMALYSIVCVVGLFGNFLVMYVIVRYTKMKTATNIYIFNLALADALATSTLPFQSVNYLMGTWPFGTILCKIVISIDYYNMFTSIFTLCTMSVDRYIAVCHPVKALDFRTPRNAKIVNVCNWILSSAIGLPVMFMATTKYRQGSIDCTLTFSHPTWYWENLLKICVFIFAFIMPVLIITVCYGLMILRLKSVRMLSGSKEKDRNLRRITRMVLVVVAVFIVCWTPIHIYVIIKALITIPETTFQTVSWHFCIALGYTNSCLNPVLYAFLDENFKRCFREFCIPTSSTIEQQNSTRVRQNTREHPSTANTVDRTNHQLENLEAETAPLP
Description: Rat brain mu opioid receptor binding assay. Conditions: rat forebrain membranes; ~0.8 nM [3H]DAMGO; read-out: μ-binding Ki. Here is the method: as §1, with “mu” for “delta”, “ligand, ˜0.8” for “ligand ˜4”, “[^3H]DAMGO,” for “[^3H]DPDPE or 0.25 nM [^3H]naltrindole”, “total assay” for “total”, “7.4)” for “7.4),”, “2×40” for “2×50”
as §2

The target in test [3] is T3, δ-opioid receptor (Mus musculus, UniProt P32300).
T3 construct: NG108-15 cell membranes were purchased from Applied Cell Sciences (Rockville, Md.); host or cells: NG108-15 cell membranes (purchased)
T3 sequence (P32300 whole entry): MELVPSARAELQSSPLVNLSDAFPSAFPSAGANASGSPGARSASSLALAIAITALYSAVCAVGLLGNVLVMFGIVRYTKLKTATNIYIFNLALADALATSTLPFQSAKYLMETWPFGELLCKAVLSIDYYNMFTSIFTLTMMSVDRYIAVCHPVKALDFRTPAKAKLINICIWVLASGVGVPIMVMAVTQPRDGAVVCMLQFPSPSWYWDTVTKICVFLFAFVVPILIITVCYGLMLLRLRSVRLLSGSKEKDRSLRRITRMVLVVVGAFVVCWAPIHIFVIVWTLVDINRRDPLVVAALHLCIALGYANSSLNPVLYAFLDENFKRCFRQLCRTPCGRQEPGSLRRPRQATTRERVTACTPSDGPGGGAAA
Kind of test: [35S]GTPγS binding assay in NG108-15 cell membranes (delta opioid functional assay). The test is classed as biochemical. The following applies: for inhibition at 10 µM: 10 μM compound, read-out: GTPγS δ-opioid receptor % Inh @10 μM; for EC50: read-out: GTPγS δ-opioid receptor EC50; for GTPγS δ-RelEfficacy @200 nM: 200 nM compound, relative to calculated max of SNC80 dose response. The method, then: Methods: NG108-15 cell membranes were purchased from Applied Cell Sciences (Rockville, Md.). 5 mg/mL of membrane protein was suspended in 10 mM TRIS-HCl pH 7.2, 2 mM EDTA, 10% sucrose. Membranes were maintained at 4-8° C. A 1 mL volume of membranes was added into 10 mL cold binding assay buffer. The assay buffer contained 50 mM Tris, pH 7.6, 5 mM MgCl2, 100 mM NaCl, 1 mM DTT and 1 mM EGTA. The membrane suspension was homogenized twice with a Polytron, and centrifuged at 3000 rpm for 10 min. The supernatant was then centrifuged at 18,000 rpm for 20 min. Ten mL of assay buffer was added into the pellet containing tube. The pellet and buffer were mixed with a Polytron.
Incubation procedure: The pellet membranes (75 μg/mL) were preincubated with SPA beads (10 mg/mL) at 25° C. for 45 min in the assay buffer. The SPA beads (5 mg/mL) coupled with membranes (37.5 μg/mL) were then incubated with 0.1 nM [^35S]GTPγS in the same Tris buffer containing 100 μM GDP in total volume of 200 μL. 200 nM of receptor agonists was used to stimulate [^35S]-GTPγS binding. The basal binding was tested in the absence of agonists and non-specific binding was tested in the presence of 10 μM unlabeled GTPγS.
Data % of Basal=(stimulated−non specific)*100/(basal−non specific). Relative Efficacy of a compound at 200 nM=(% of Basal of test compound at 200 nM)/(Calculated Max of SNC80 dose response. Curve in prism).

[4] abbreviates: rat forebrain membranes, ~4 nM [3H]DPDPE, read-out: δ-binding (DPDPE ligand) Ki.
[5] abbreviates: [3H]naltrindole ligand, read-out: δ-binding (Naltrindole ligand) Ki.

T1 sequence (P33533 whole entry): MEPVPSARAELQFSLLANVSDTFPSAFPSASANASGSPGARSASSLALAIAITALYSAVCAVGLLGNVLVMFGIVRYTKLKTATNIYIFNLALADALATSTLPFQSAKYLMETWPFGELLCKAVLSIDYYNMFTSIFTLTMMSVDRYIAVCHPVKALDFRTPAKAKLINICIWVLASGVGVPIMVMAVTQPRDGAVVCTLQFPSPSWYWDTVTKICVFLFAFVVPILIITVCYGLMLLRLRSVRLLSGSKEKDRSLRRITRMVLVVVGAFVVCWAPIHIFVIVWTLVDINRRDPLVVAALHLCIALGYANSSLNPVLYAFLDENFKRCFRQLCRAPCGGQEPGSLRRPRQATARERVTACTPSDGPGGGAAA

Regarding `COCC#Cc1cnc(NC[C@@H]2CCCN2)c(Oc2ccc(OC)cc2)n1` [Cpd 4], in test [1] (setting [4]), the Ki turned out to be 0.0019 µM. For the same compound, the Ki in test [2] was 4.98 µM. Further, in test [3], the “GTPγS δ-opioid receptor Rel Efficacy” value was 0.9477, the inhibition at 10 µM came out at 1% and the half-maximal effective concentration (EC50) came to 0.0825 µM.

With `COc1ccc(Oc2nc(-c3cncnc3)cnc2NC[C@@H]2CCCN2)cc1F` [Cpd 8], in test [1] (setting [4]), the Ki came to 0.0008 µM. For the same compound, the Ki in test [2] turned out to be 0.202 µM. Also, in test [3], the “GTPγS δ-opioid receptor Rel Efficacy” value is listed as 1.0302 and the 50% effective concentration (EC50) was 0.148 µM.

Consider `COc1ccc(Oc2nc(-c3cccnc3)cnc2NC[C@@H]2CCCN2)cc1` [Cpd 2, [3-(4-Methoxy-phenoxy)-5-pyridin-3-yl-pyrazin-2-yl]-pyrrolidin-2-(S)-ylmethyl-amine], for which, in test [1] (setting [4]), the Ki stood at 0.0021 µM. Moreover, the Ki in test [2] came out at 0.816 µM. In addition, in test [3], the “GTPγS δ-opioid receptor Rel Efficacy” value is listed as 1.0430, the inhibition at 10 µM came to 1% and the EC50 is 0.0297 µM.

In the case of `COc1ccc(Oc2nc(-c3ccc(OC)nc3)cnc2NC[C@@H]2CCCN2)cc1` [Cpd 1], the Ki in test [1] (setting [4]) came to 0.0006 µM. Also, the Ki in test [2] turned out to be 2.39 µM. Besides, in test [3], the “GTPγS δ-opioid receptor Rel Efficacy” value is given as 0.8696, the inhibition at 10 µM is 6.57% and the EC50 is 0.0585 µM.

With `COc1ccc(Oc2nc(C#Cc3cccnc3)cnc2NC[C@@H]2CCCN2)cc1` [Cpd 3, [3-(4-Methoxy-phenoxy)-5-pyridin-3-ylethynyl-pyrazin-2-yl]-pyrrolidin-2-(S)-ylmethyl-amine], in test [1] (setting [4]), the inhibition constant (Ki) is 0.0015 µM. In test [2], the Ki is 3.24 µM. Besides, in test [3], the “GTPγS δ-opioid receptor Rel Efficacy” value came to 1.0797, the inhibition at 10 µM amounted to 1% and the EC50 is 0.0462 µM.

In the case of `COc1ccc(Oc2nc(-c3cncc(C#N)c3)cnc2NC[C@@H]2CCCN2)cc1` [Cpd 24], the Ki in test [1] (setting [5]) was 0.0002 µM. Moreover, the “GTPγS δ-RelEfficacy @200 nM” value in test [3] is listed as 0.1669.

Consider `COc1ccc(Cc2nc(-c3cncnc3)cnc2NC[C@@H]2CCCN2)cc1` [Cpd 17, [3-(4-Methoxy-benzyl)-5-pyrimidin-5-yl-pyrazin-2-yl]-pyrrolidin-2-(S)-ylmethyl-amine], for which the Ki in test [1] (setting [5]) was 0.0199 µM. Further, in test [3], the “GTPγS δ-RelEfficacy @200 nM” value is 0.1065.

Usually Ki stands for a measure of affinity in units of concentration, obtained from inhibition or displacement. In general, EC50 refers to the concentration that produces a half-maximal response.
